Measurements published in ChEMBL document CHEMBL3102738, “Synthesis and biological evaluation of nitric oxide-donating analogues of sulindac for prostate cancer treatment” (Bioorg Med Chem, 2014).
The source made the active and inactive calls. The rule behind the calls is not given here.

What was measured:
[1] = system: PC-3; assay: Cytotoxicity against human PC3 cells assessed as cell viability at 50 uM after 72 hrs by crystal violet method (reference value: 95.69 +/- 7.66%); format: functional; settings: PC-3, 72 h, read-out: Activity
[2] = system: PC-3; assay: Cytotoxicity against human PC3 cells assessed as cell viability at 50 uM after 48 hrs by crystal violet method (reference value: 100.87 +/- 4.87%); format: functional; settings: PC-3, 48 h, read-out: Activity
[3] = system: PC-3; assay: Cytotoxicity against human PC3 cells assessed as cell viability at 50 uM after 24 hrs by crystal violet method (reference value: 99.09 +/- 9.87%); format: functional; settings: PC-3, 24 h, read-out: Activity
[4] = system: PC-3; assay: Cytotoxicity against human PC3 cells at 0.05 to 0.5 uM after 72 hrs by crystal violet method

SMILES | viability at 50 µM [1] [%] | viability at 50 µM [2] [%] | viability at 50 µM [3] [%] | Activity [4]
CC1=C(CC(=O)OCCCOc2no[n+]([O-])c2S(=O)(=O)c2ccccc2)c2cc(F)ccc2/C1=C\c1ccc(S(C)(=O)=O)cc1 | 0 | 0 | 0 | –
CSc1ccc(/C=C2/C(C)=C(CC(=O)OCC(CO[N+](=O)[O-])(CO[N+](=O)[O-])CO[N+](=O)[O-])c3cc(F)ccc32)cc1 | 110 | 101 | 88.3 | –
CSc1ccc(/C=C2/C(C)=C(CC(=O)OCc3cccc(Oc4no[n+]([O-])c4S(=O)(=O)c4ccccc4)c3)c3cc(F)ccc32)cc1 | 82.7 | 79.7 | 102 | –
CC1=C(CC(=O)/N=c2\c[n+](-c3ccccc3)[n-]o2)c2cc(F)ccc2/C1=C\c1ccc([S+](C)[O-])cc1 (configuration not stated) | 20.6 | 29.8 | 64.6 | inactive
CC1=C(CC(=O)OCc2cccc(Oc3no[n+]([O-])c3S(=O)(=O)c3ccccc3)c2)c2cc(F)ccc2/C1=C\c1ccc([S+](C)[O-])cc1 (configuration not stated) | 51.9 | 56.2 | 71.8 | –
CSc1ccc(/C=C2/C(C)=C(CC(=O)NCCOC(=O)/N=c3/c[n+](-c4ccccc4)[n-]o3)c3cc(F)ccc32)cc1 | 17.7 | 27.1 | 57.6 | inactive
CC1=C(CC(=O)OCCCCCCO[N+](=O)[O-])c2cc(F)ccc2/C1=C\c1ccc(S(C)(=O)=O)cc1 | 64 | 59 | 93.3 | –
CSc1ccc(/C=C2/C(C)=C(CC(=O)OCCCCCCO[N+](=O)[O-])c3cc(F)ccc32)cc1 | 104 | 85.1 | 92.4 | –
CC1=C(CC(=O)OCCCCOc2no[n+]([O-])c2S(=O)(=O)c2ccccc2)c2cc(F)ccc2/C1=C\c1ccc([S+](C)[O-])cc1 (configuration not stated) | 16.5 | 21.8 | 32.3 | –
CSc1ccc(/C=C2/C(C)=C(CC(=O)Oc3cccc(Oc4no[n+]([O-])c4S(=O)(=O)c4ccccc4)c3)c3cc(F)ccc32)cc1 | 80.7 | 88.3 | 81.1 | –
CC1=C(CC(=O)OCCCCO)c2cc(F)ccc2/C1=C\c1ccc(S(C)(=O)=O)cc1 | 86.6 | 81.5 | 87.4 | –
CC1=C(CC(=O)Oc2cccc(Oc3no[n+]([O-])c3S(=O)(=O)c3ccccc3)c2)c2cc(F)ccc2/C1=C\c1ccc(S(C)(=O)=O)cc1 | 0 | 0 | 0 | –
CSc1ccc(/C=C2/C(C)=C(CC(=O)O)c3cc(F)ccc32)cc1 [SULINDAC SULFIDE] | 105 | 93.7 | 99.2 | –
CC1=C(CC(=O)OCCOc2no[n+]([O-])c2S(=O)(=O)c2ccccc2)c2cc(F)ccc2/C1=C\c1ccc(S(C)(=O)=O)cc1 | 0 | 0 | 0 | –
CC1=C(CC(=O)NCCOC(=O)/N=c2/c[n+](-c3ccccc3)[n-]o2)c2cc(F)ccc2/C1=C\c1ccc(S(C)(=O)=O)cc1 | 37.3 | 45.9 | 76.5 | inactive
CSc1ccc(/C=C2/C(C)=C(CC(=O)/N=c3\c[n+](-c4ccccc4)[n-]o3)c3cc(F)ccc32)cc1 | 77 | 90.8 | 89 | –
CC1=C(CC(=O)OCc2cccc(Oc3no[n+]([O-])c3S(=O)(=O)c3ccccc3)c2)c2cc(F)ccc2/C1=C\c1ccc(S(C)(=O)=O)cc1 | 63.6 | 67.7 | 88.3 | –
CC1=C(CC(=O)OCC#CCOc2no[n+]([O-])c2S(=O)(=O)c2ccccc2)c2cc(F)ccc2/C1=C\c1ccc(S(C)(=O)=O)cc1 | 27.3 | 38 | 36.5 | –
CC1=C(CC(=O)OCCCCO[N+](=O)[O-])c2cc(F)ccc2/C1=C\c1ccc([S+](C)[O-])cc1 (configuration not stated) | 24.5 | 35.5 | 58.8 | –
CC1=C(CC(=O)/N=c2\c[n+](-c3ccccc3)[n-]o2)c2cc(F)ccc2/C1=C\c1ccc(S(C)(=O)=O)cc1 | 81.1 | 74.5 | 108 | –
CSc1ccc(/C=C2/C(C)=C(CC(=O)NCCNC(=O)/N=c3/c[n+](-c4ccccc4)[n-]o3)c3cc(F)ccc32)cc1 | 21.3 | 34.7 | 66.5 | inactive
CSc1ccc(/C=C2/C(C)=C(CC(=O)OC(CO[N+](=O)[O-])CO[N+](=O)[O-])c3cc(F)ccc32)cc1 | 93.5 | 92.3 | 91.2 | –
CC1=C(CC(=O)OCCO[N+](=O)[O-])c2cc(F)ccc2/C1=C\c1ccc([S+](C)[O-])cc1 (configuration not stated) | 35.5 | 54.9 | 73 | –

SMILES | viability at 50 µM [1] [%] | viability at 50 µM [2] [%] | viability at 50 µM [3] [%] | Activity [4]
CC1=C(CC(=O)OCC#CCOc2no[n+]([O-])c2S(=O)(=O)c2ccccc2)c2cc(F)ccc2/C1=C\c1ccc([S+](C)[O-])cc1 (configuration not stated) | 0 | 0 | 0 | –
CSc1ccc(/C=C2/C(C)=C(CC(=O)OC/C=C\COc3no[n+]([O-])c3S(=O)(=O)c3ccccc3)c3cc(F)ccc32)cc1 | 20.6 | 31.4 | 30.6 | –
CSc1ccc(/C=C2/C(C)=C(CC(=O)OCCCCCCOc3no[n+]([O-])c3S(=O)(=O)c3ccccc3)c3cc(F)ccc32)cc1 | 29.2 | 41.7 | 57.2 | –
CC1=C(CC(=O)OC(CO[N+](=O)[O-])CO[N+](=O)[O-])c2cc(F)ccc2/C1=C\c1ccc([S+](C)[O-])cc1 (configuration not stated) | 30.2 | 44.9 | 46.5 | –
CC1=C(CC(=O)OCCCCO)c2cc(F)ccc2/C1=C\c1ccc([S+](C)[O-])cc1 (configuration not stated) | 96.5 | 76.9 | 96.6 | –
CC1=C(CC(=O)O)c2cc(F)ccc2/C1=C\c1ccc(S(C)(=O)=O)cc1 [EXISULIND] | 83.5 | 91 | 87.8 | –
CC1=C(CC(=O)OCCCOc2no[n+]([O-])c2S(=O)(=O)c2ccccc2)c2cc(F)ccc2/C1=C\c1ccc([S+](C)[O-])cc1 (configuration not stated) | 0 | 0 | 0 | –
CC1=C(CC(=O)OCCCCOc2no[n+]([O-])c2S(=O)(=O)c2ccccc2)c2cc(F)ccc2/C1=C\c1ccc(S(C)(=O)=O)cc1 | 38.8 | 49.9 | 67.9 | –
CSc1ccc(/C=C2/C(C)=C(CC(=O)OCC#CCOc3no[n+]([O-])c3S(=O)(=O)c3ccccc3)c3cc(F)ccc32)cc1 | 14.9 | 20.8 | 25.4 | –
CC1=C(CC(=O)OCCCCO[N+](=O)[O-])c2cc(F)ccc2/C1=C\c1ccc(S(C)(=O)=O)cc1 | 54.7 | 52.9 | 68.7 | –
CC1=C(CC(=O)OC/C=C\COc2no[n+]([O-])c2S(=O)(=O)c2ccccc2)c2cc(F)ccc2/C1=C\c1ccc(S(C)(=O)=O)cc1 | 0 | 0 | 0 | –
CC1=C(CC(=O)OCCO[N+](=O)[O-])c2cc(F)ccc2/C1=C\c1ccc(S(C)(=O)=O)cc1 | 84.4 | 96.2 | 84.4 | –
CSc1ccc(/C=C2/C(C)=C(CC(=O)OCCCCO[N+](=O)[O-])c3cc(F)ccc32)cc1 | 17.1 | 28.4 | 49.4 | –
CC1=C(CC(=O)OCC(CO[N+](=O)[O-])(CO[N+](=O)[O-])CO[N+](=O)[O-])c2cc(F)ccc2/C1=C\c1ccc([S+](C)[O-])cc1 (configuration not stated) | 89.6 | 79.8 | 86 | –
CC1=C(CC(=O)OCCCCCCO[N+](=O)[O-])c2cc(F)ccc2/C1=C\c1ccc([S+](C)[O-])cc1 (configuration not stated) | 88.1 | 72.7 | 105 | –
CSc1ccc(/C=C2/C(C)=C(CC(=O)OCCO[N+](=O)[O-])c3cc(F)ccc32)cc1 | 91.2 | 119 | 95.6 | –
CC1=C(CC(=O)OCC(CO[N+](=O)[O-])(CO[N+](=O)[O-])CO[N+](=O)[O-])c2cc(F)ccc2/C1=C\c1ccc(S(C)(=O)=O)cc1 | 95.3 | 84.5 | 101 | –
CSc1ccc(/C=C2/C(C)=C(CC(=O)OCCOCCOc3no[n+]([O-])c3S(=O)(=O)c3ccccc3)c3cc(F)ccc32)cc1 | 50.8 | 71 | 55.2 | –
CC1=C(CC(=O)OC(CO[N+](=O)[O-])CO[N+](=O)[O-])c2cc(F)ccc2/C1=C\c1ccc(S(C)(=O)=O)cc1 | 89.4 | 89 | 88 | –
CSc1ccc(/C=C2/C(C)=C(CC(=O)OCCCCO)c3cc(F)ccc32)cc1 | 84 | 80.5 | 98.2 | –
CC1=C(CC(=O)Oc2cccc(Oc3no[n+]([O-])c3S(=O)(=O)c3ccccc3)c2)c2cc(F)ccc2/C1=C\c1ccc([S+](C)[O-])cc1 (configuration not stated) | 66.3 | 67.7 | 74 | –
CC1=C(CC(=O)OCCOCCOc2no[n+]([O-])c2S(=O)(=O)c2ccccc2)c2cc(F)ccc2/C1=C\c1ccc(S(C)(=O)=O)cc1 | 0 | 0 | 0 | –
CC1=C(CC(=O)OCCCCCCOc2no[n+]([O-])c2S(=O)(=O)c2ccccc2)c2cc(F)ccc2/C1=C\c1ccc(S(C)(=O)=O)cc1 | 15.4 | 24.2 | 42.4 | –
